Results published in the supplement of paper PMC10307832.

These cell lines were tested with CC1CC(=O)N(C2=CN=C(N=C2N1C3CCCC3)NC4=C(C=C(C=C4)C(=O)NC5CCN(CC5)C)OC)C [NPK76-II-72-1] + Nc1ncn([C@H]2C[C@H](O)[C@@H](CO)O2)c(=O)n1 [Decitabine] (partner 2 µM) (assay: relative viability (nuclei count vs DMSO), 5 days (fraction); higher = more cells survive). Details: first compound 0.01 µM.
Method in brief: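 Relative viability is defined as nuclei in treated wells over nuclei in vehicle wells. Duplicate plates were run and medians reported. Lung cancer cell lines in 1536-well plates were dosed by pin tool one day after seeding, with one drug or with a fixed anchor-drug dose plus five library-drug doses (not always all listed) in √10 steps, and nuclei were counted after 5 days.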

Going from NCI-H522 to NCI-H727, the relative viability rises from 0.74 to 0.874.

Compared with NCI-H1650, NCI-H1993 is higher in relative viability: 0.377 for the first, 0.604 for the second.

First: SW 1573
Second: NCI-H838
The relative viability of the first is higher: 0.508 for the first, 0.495 for the second.

Going from NCI-H520 to NCI-H2126, the relative viability rises from 0.455 to 0.57.

Going from EMC-BAC-2 to NCI-H2085, the relative viability falls from 0.978 to 0.543.

First: HCC-366
Second: NCI-H1666
The relative viability of the first is lower: 0.333 for the first, 0.809 for the second.

First: NCI-H596
Second: LK-2
The relative viability of the first is higher: 1.02 for the first, 0.379 for the second.

Going from NCI-H2087 to NCI-H2342, the relative viability rises from 0.226 to 0.686.

First: SK-MES-1
Second: H3255
The relative viability of the first is lower: 0.359 for the first, 0.622 for the second.

Going from COR-L23 to COR-L 105, the relative viability rises from 0.423 to 0.622.

Compared with LOU-NH91, ChaGo-K-1 is lower in relative viability: 0.794 for the first, 0.487 for the second.

Compared with NCI-H2170, A549 is lower in relative viability: 0.442 for the first, 0.429 for the second.

First: SW 900
Second: NCI-H1648
The relative viability of the first is lower: 0.425 for the first, 0.53 for the second.

First: NCI-H1395
Second: NCI-H1944
The relative viability of the first is higher: 0.758 for the first, 0.431 for the second.

Going from ABC-1 to NCI-H358, the relative viability falls from 0.94 to 0.193.

Same assay, conditions: first compound 0.03162 µM

Going from NCI-H522 to NCI-H727, the relative viability rises from 0.598 to 0.888.

Going from NCI-H1650 to NCI-H1993, the relative viability rises from 0.43 to 0.624.

First: SW 1573
Second: NCI-H838
The relative viability of the first is higher: 0.579 for the first, 0.458 for the second.

Compared with LCLC-103H, NCI-H520 is lower in relative viability: 0.786 for the first, 0.575 for the second.

Compared with NCI-H2126, EMC-BAC-2 is higher in relative viability: 0.554 for the first, 1.01 for the second.

Compared with NCI-H2085, HCC-366 is lower in relative viability: 0.519 for the first, 0.381 for the second.

First: NCI-H1666
Second: NCI-H596
The relative viability of the first is lower: 0.755 for the first, 1.19 for the second.

First: LK-2
Second: NCI-H2087
The relative viability of the first is lower: 0.246 for the first, 0.33 for the second.

Compared with NCI-H2342, SK-MES-1 is lower in relative viability: 0.694 for the first, 0.441 for the second.

Compared with H3255, COR-L23 is lower in relative viability: 0.58 for the first, 0.473 for the second.

Going from COR-L 105 to LOU-NH91, the relative viability rises from 0.65 to 0.849.

Going from ChaGo-K-1 to NCI-H2170, the relative viability falls from 0.52 to 0.447.

First: A549
Second: SW 900
The relative viability of the first is lower: 0.332 for the first, 0.407 for the second.

First: NCI-H1648
Second: NCI-H1395
The relative viability of the first is lower: 0.551 for the first, 0.619 for the second.

Going from NCI-H1793 to NCI-H1944, the relative viability falls from 0.542 to 0.463.

Going from ABC-1 to NCI-H358, the relative viability falls from 1 to 0.215.

Same assay, conditions: first compound 0.1 µM

Going from NCI-H522 to NCI-H727, the relative viability rises from 0.686 to 0.801.

First: NCI-H1650
Second: NCI-H1993
The relative viability of the first is lower: 0.435 for the first, 0.61 for the second.

Going from SW 1573 to NCI-H838, the relative viability falls from 0.51 to 0.455.

Going from LCLC-103H to NCI-H520, the relative viability falls from 0.694 to 0.589.

Compared with NCI-H2126, EMC-BAC-2 is higher in relative viability: 0.569 for the first, 0.986 for the second.

First: NCI-H2085
Second: HCC-366
The relative viability of the first is higher: 0.517 for the first, 0.378 for the second.

First: NCI-H1666
Second: NCI-H596
The relative viability of the first is lower: 0.705 for the first, 1.01 for the second.

Compared with LK-2, NCI-H2087 is higher in relative viability: 0.265 for the first, 0.3 for the second.

Compared with NCI-H2342, SK-MES-1 is lower in relative viability: 0.759 for the first, 0.434 for the second.

First: H3255
Second: COR-L23
The relative viability of the first is higher: 0.614 for the first, 0.469 for the second.

Compared with COR-L 105, LOU-NH91 is higher in relative viability: 0.448 for the first, 0.793 for the second.

Compared with ChaGo-K-1, NCI-H2170 is lower in relative viability: 0.475 for the first, 0.455 for the second.

Compared with A549, SW 900 is higher in relative viability: 0.327 for the first, 0.429 for the second.

Going from NCI-H1648 to NCI-H1395, the relative viability rises from 0.548 to 0.628.

Compared with NCI-H1793, NCI-H1944 is lower in relative viability: 0.547 for the first, 0.408 for the second.

Going from ABC-1 to NCI-H358, the relative viability falls from 0.859 to 0.222.

Same assay, conditions: first compound 0.3162 µM

Compared with NCI-H727, NCI-H1650 is lower in relative viability: 0.785 for the first, 0.423 for the second.

First: NCI-H1993
Second: SW 1573
The relative viability of the first is lower: 0.474 for the first, 0.649 for the second.

Going from NCI-H838 to LCLC-103H, the relative viability rises from 0.466 to 0.761.

Going from NCI-H520 to NCI-H2126, the relative viability rises from 0.496 to 0.516.

Compared with EMC-BAC-2, NCI-H2085 is lower in relative viability: 0.969 for the first, 0.472 for the second.

Going from HCC-366 to NCI-H1666, the relative viability rises from 0.301 to 0.713.

First: NCI-H596
Second: LK-2
The relative viability of the first is higher: 1 for the first, 0.201 for the second.

First: NCI-H2087
Second: NCI-H2342
The relative viability of the first is lower: 0.217 for the first, 0.668 for the second.

First: SK-MES-1
Second: COR-L23
The relative viability of the first is lower: 0.364 for the first, 0.384 for the second.

Compared with COR-L 105, LOU-NH91 is higher in relative viability: 0.616 for the first, 0.735 for the second.

First: ChaGo-K-1
Second: NCI-H2170
The relative viability of the first is higher: 0.512 for the first, 0.42 for the second.

Compared with A549, SW 900 is higher in relative viability: 0.233 for the first, 0.504 for the second.

Compared with NCI-H1648, NCI-H1395 is higher in relative viability: 0.476 for the first, 0.693 for the second.

Compared with NCI-H1793, NCI-H1944 is lower in relative viability: 0.409 for the first, 0.408 for the second.

ABC-1 showed a relative viability of 1.13.

Same assay, conditions: first compound 1 µM

Going from NCI-H522 to NCI-H727, the relative viability rises from 0.633 to 0.764.

Going from NCI-H1650 to NCI-H1993, the relative viability rises from 0.347 to 0.678.

First: SW 1573
Second: NCI-H838
The relative viability of the first is higher: 0.505 for the first, 0.476 for the second.

First: LCLC-103H
Second: NCI-H520
The relative viability of the first is higher: 0.716 for the first, 0.586 for the second.

Compared with NCI-H2126, EMC-BAC-2 is higher in relative viability: 0.538 for the first, 1.08 for the second.

Going from NCI-H2085 to HCC-366, the relative viability falls from 0.611 to 0.373.

Going from NCI-H1666 to NCI-H596, the relative viability rises from 0.733 to 1.01.

Compared with LK-2, NCI-H2087 is lower in relative viability: 0.407 for the first, 0.36 for the second.

First: NCI-H2342
Second: SK-MES-1
The relative viability of the first is higher: 0.78 for the first, 0.455 for the second.

Compared with H3255, COR-L23 is lower in relative viability: 0.688 for the first, 0.454 for the second.

First: COR-L 105
Second: LOU-NH91
The relative viability of the first is lower: 0.69 for the first, 0.875 for the second.

First: ChaGo-K-1
Second: NCI-H2170
The relative viability of the first is lower: 0.501 for the first, 0.511 for the second.

Compared with A549, SW 900 is higher in relative viability: 0.312 for the first, 0.467 for the second.

First: NCI-H1648
Second: NCI-H1395
The relative viability of the first is lower: 0.519 for the first, 0.753 for the second.

First: NCI-H1793
Second: NCI-H1944
The relative viability of the first is higher: 0.575 for the first, 0.478 for the second.

Work on ABC-1 yielded a relative viability of 0.887.
